Measured values as given in ChEMBL document CHEMBL5053546, “Peptidomimetic analogues of an Arg-Trp-x-x-Trp motif responsible for interaction of translocase MraY with bacteriophage ϕX174 lysis protein E” (Bioorg Med Chem, 2021).
≈ marks a conversion by molar mass, not a printed value. Calls of active or inactive are those of the source. No cut-off for these calls is given here.

Tests used:
Pseudomonas fluorescens = experiment: Antibacterial activity against Pseudomonas fluorescence Pf-5 assessed as reduction in bacterial growth incubated overnight by microplate reader analysis; type: functional
Bacillus subtilis [1] = experiment: Antibacterial activity against Bacillus subtilis W23 assessed as reduction in bacterial growth incubated overnight by microplate reader analysis; type: functional
Escherichia coli [2] = experiment: Inhibition of MraY overexpressed in Escherichia coli membrane using UDP-MurNAc-L-Ala-gamma-D-Glu-L-Lys(N epsilon-dansyl)-D-Ala-D-Ala and undecaprenyl phosphate as substrate assessed as reduction in lipid II synthesis at 200 uM incubated for 30 mins in presence of [3H]-UDPGlcNAc by liquid scintillation counting analysis; type: cell membranes
Escherichia coli [3] = experiment: Inhibition of MraY overexpressed in Escherichia coli membrane using UDP-MurNAc-L-Ala-gamma-D-Glu-L-Lys(N epsilon-dansyl)-D-Ala-D-Ala as substrate at 200 uM by continuous fluoresence assay; type: cell membranes
Escherichia coli [4] = experiment: Antibacterial activity against Escherichia coli K-12 assessed as reduction in bacterial growth incubated overnight by microplate reader analysis; type: functional
Escherichia coli [5] = experiment: Inhibition of MraY overexpressed in Escherichia coli membrane using UDP-MurNAc-L-Ala-gamma-D-Glu-L-Lys(N epsilon-dansyl)-D-Ala-D-Ala as substrate at 200 ug/ml by fluoresence enhancement assay; type: cell membranes; details: dose 200.0 µg/ml
Escherichia coli [6] = experiment: Inhibition of Escherichia coli MraY overexpressed in Escherichia coli membrane using UDP-MurNAc-L-Ala-gamma-D-Glu-L-Lys(N epsilon-dansyl)-D-Ala-D-Ala and undecaprenyl phosphate as substrate assessed as reduction in lipid II synthesis at 200 uM incubated for 30 mins in presence of [3H]-UDPGlcNAc by liquid scintillation counting analysis relative to control; type: cell membranes
Acinetobacter baumannii = experiment: Antibacterial activity against multi drug resistant ESBL positive Acinetobacter baumannii NCTC 13420 assessed as reduction in bacterial growth by CLSI protocol based assay; type: functional
Klebsiella pneumoniae = experiment: Antibacterial activity against ESBL positive Klebsiella pneumoniae ATCC 700603 assessed as reduction in bacterial growth by CLSI protocol based assay
Enterococcus faecalis = experiment: Antibacterial activity against high level aminoglycoside resistant Enterococcus faecalis ATCC 51299 assessed as reduction in bacterial growth by CLSI protocol based assay; type: functional
Staphylococcus aureus = experiment: Antibacterial activity against Staphylococcus aureus MRSA JE2 USA300 assessed as reduction in bacterial growth by CLSI protocol based assay; type: functional
Pseudomonas aeruginosa [7] = experiment: Antibacterial activity against multi drug resistant Pseudomonas aeruginosa NCTC 13437 assessed as reduction in bacterial growth by CLSI protocol based assay; type: functional
Enterobacter cloacae = experiment: Antibacterial activity against ESBL positive Enterobacter cloacae NCTC 13405 assessed as reduction in bacterial growth by CLSI protocol based assay; type: functional
Escherichia coli [8] = experiment: Bacteriocidal activity against Escherichia coli at 250 ug/ml incubated for 1 hr followed by alamar blue addition measured after 2 to 3 hrs by fluorescence based analysis; type: functional, organism-based; details: dose 250.0 µg/ml
Escherichia coli [9] = experiment: Antibacterial activity against Escherichia coli K-12 assessed as reduction in bacterial growth by NCCLS protocol based broth dilution method; type: functional
Bacillus subtilis [10] = experiment: Antibacterial activity against Bacillus subtilis assessed as reduction in bacterial growth by NCCLS protocol based broth dilution method; type: functional
Pseudomonas aeruginosa [11] = experiment: Antibacterial activity against Pseudomonas aeruginosa assessed as reduction in bacterial growth by NCCLS protocol based broth dilution method; type: functional
Escherichia coli [12] = experiment: Bacteriostatic activity against Escherichia coli at 250 ug/ml incubated for 1 hr followed by alamar blue addition measured after 2 to 3 hrs by fluorescence based analysis; type: functional, organism-based; details: dose 250.0 µg/ml
[13] = Inhibition of MraY overexpressed in Escherichia coli membrane using UDP-MurNAc-L-Ala-gamma-D-Glu-L-Lys(N epsilon-dansyl)-D-Ala-D-Ala as substrate by continuous fluoresence assay; type: cell membranes
Escherichia coli [14] = experiment: Inhibition of Escherichia coli MraY overexpressed in Escherichia coli membrane using UDP-MurNAc-L-Ala-gamma-D-Glu-L-Lys(N epsilon-dansyl)-D-Ala-D-Ala as substrate at 200 uM by continuous fluoresence assay relative to control; type: cell membranes

MIC50 (Pseudomonas fluorescens) [µg/mL]	MIC50 (Bacillus subtilis [1]) [µg/mL]	MIC50 (Escherichia coli [4]) [µg/mL]	inhibition (Escherichia coli [5])	Structure (SMILES)	MIC50 (Acinetobacter baumannii) [µg/mL]	MIC50 (Klebsiella pneumoniae) [µg/mL]	MIC50 (Enterococcus faecalis) [µg/mL]	MIC50 (Staphylococcus aureus) [µg/mL]	MIC50 (Pseudomonas aeruginosa [7]) [µg/mL]	MIC50 (Enterobacter cloacae) [µg/mL]	also measured
> 125	10 (≈ 17.7 µM)	> 125	–	CCCCCCCCNC(=O)c1ccc(NC(=O)[C@@H](N)CCCNC(=N)N)c(OCCc2c[nH]c3ccccc23)c1	–	–	–	–	–	–	inhibition (Escherichia coli [2]): inactive; inhibition (Escherichia coli [3]): inactive
45 (≈ 88.5 µM)	10 (≈ 19.7 µM)	9 (≈ 17.7 µM)	inactive	CCCCCCCCOC(=O)[C@H](Cc1c[nH]c2ccccc12)NC(=O)[C@@H](N)CCCNc1ncccn1	–	–	–	–	–	–	–
20 (≈ 42.4 µM)	7 (≈ 14.8 µM)	3 (≈ 6.36 µM)	inactive	CCCCCCCCNC(=O)[C@H](Cc1c[nH]c2ccccc12)NC(=O)[C@@H](N)CCCNC(=N)N	–	–	–	–	–	–	Activity (Escherichia coli [8]): Active
53 (≈ 119 µM)	13 (≈ 29.2 µM)	37 (≈ 83.2 µM)	inactive	CCCCCCOC(=O)[C@H](Cc1c[nH]c2ccccc12)NC(=O)[C@@H](N)CCCNC(=N)N	–	–	–	–	–	–	–
21 (≈ 36.7 µM)	8 (≈ 14 µM)	12 (≈ 21 µM)	–	CCCCCCCCOC(=O)[C@H](Cc1c[nH]c2ccccc12)NC(=O)[C@H](CCCNC(=N)N)NC(=O)OC(C)(C)C	–	–	–	–	–	–	–
26 (≈ 58.6 µM)	11 (≈ 24.8 µM)	17 (≈ 38.3 µM)	inactive	CCCCCCCCNC(=O)[C@H](Cc1c[nH]c2ccccc12)NC(=O)[C@@H](N)CCCCN	–	–	–	–	–	–	Activity (Escherichia coli [8]): Active
19 (≈ 36.9 µM)	9 (≈ 17.5 µM)	42 (≈ 81.6 µM)	–	CCCCCCCCOC(=O)[C@H](Cc1c[nH]c2ccccc12)NC(=O)[C@H](CCCNC(=N)N)NC(C)=O	–	–	–	–	–	–	–
64 (≈ 148 µM)	11 (≈ 25.4 µM)	11 (≈ 25.4 µM)	inactive	CCCCCCCCOC(=O)[C@H](Cc1ccccc1)NC(=O)[C@@H](N)CCCNC(=N)N	–	–	–	–	–	–	–
5 (≈ 11.2 µM)	1 (≈ 2.25 µM)	2 (≈ 4.5 µM)	inactive	CCCCCCCCOC(=O)[C@H](Cc1c[nH]c2ccccc12)NC(=O)[C@@H](N)CCCCN	–	–	–	–	–	–	Activity (Escherichia coli [8]): Active
3 (≈ 5.99 µM)	8 (≈ 16 µM)	3 (≈ 5.99 µM)	inactive	CCCCCCCCCCOC(=O)[C@H](Cc1c[nH]c2ccccc12)NC(=O)[C@@H](N)CCCNC(=N)N	–	–	–	–	–	–	–

Second part, the compound before the results:

Structure (SMILES)	MIC50 (Pseudomonas fluorescens) [µg/mL]	MIC50 (Bacillus subtilis [1]) [µg/mL]	MIC50 (Escherichia coli [4]) [µg/mL]	inhibition (Escherichia coli [5])	MIC50 (Acinetobacter baumannii) [µg/mL]	MIC50 (Klebsiella pneumoniae) [µg/mL]	MIC50 (Enterococcus faecalis) [µg/mL]	MIC50 (Staphylococcus aureus) [µg/mL]	MIC50 (Pseudomonas aeruginosa [7]) [µg/mL]	MIC50 (Enterobacter cloacae) [µg/mL]	also measured
CCCCCCCCOC(=O)[C@H](Cc1ccc(O)cc1)NC(=O)[C@@H](N)CCCNC(=N)N	124 (≈ 276 µM)	25 (≈ 55.6 µM)	118 (≈ 262 µM)	inactive	–	–	–	–	–	–	–
CCCCCCC(=O)N(CCc1c[nH]c2ccccc12)c1ccc(C(=O)N[C@@H](CCCCN)C(=O)OC)c(OCCc2c[nH]c3ccccc23)c1	> 125	58 (≈ 83.6 µM)	4 (≈ 5.76 µM)	–	> 256	> 256	16 (≈ 23.1 µM)	> 256	> 256	> 256	inhibition (Escherichia coli [6]): 21%
CCCCCCCCc1ccc(C(=O)N[C@@H](CCCNC(=N)N)C(=O)O)c(OCCc2c[nH]c3ccccc23)c1	> 125	10 (≈ 18.2 µM)	30 (≈ 54.6 µM)	–	–	–	–	–	–	–	inhibition (Escherichia coli [2]): inactive; inhibition (Escherichia coli [3]): inactive
CCCCCCC(=O)Nc1ccc(C(=O)N[C@@H](CCCCN)C(=O)OC)c(OCCc2c[nH]c3ccccc23)c1	56 (≈ 102 µM)	28 (≈ 50.8 µM)	28 (≈ 50.8 µM)	–	> 256	> 256	64 (≈ 116 µM)	> 256	> 256	> 256	inhibition (Escherichia coli [6]): 12%
CCCCCCCCOC(=O)[C@H](Cc1c[nH]c2ccccc12)NC(=O)[C@@H](N)CCCNC(=N)N	18 (≈ 38.1 µM)	13 (≈ 27.5 µM)	5 (≈ 10.6 µM)	inactive	> 256	> 256	> 256	> 256	> 256	> 256	MIC50 (Escherichia coli [9]): 31 µg/mL (≈ 65.6 µM); MIC50 (Bacillus subtilis [10]): 8 µg/mL (≈ 16.9 µM); MIC50 (Pseudomonas aeruginosa [11]): 40 µg/mL (≈ 84.6 µM); Activity (Escherichia coli [12]): Active
CCCCCCC(=O)N(Cc1ccccc1)c1ccc(C(=O)N[C@@H](CCCCN)C(=O)OC)c(OCc2ccccc2)c1	46 (≈ 78.3 µM)	12 (≈ 20.4 µM)	7 (≈ 11.9 µM)	–	> 256	> 256	16 (≈ 27.2 µM)	> 256	> 256	> 256	IC50 [13]: 140 µM; inhibition (Escherichia coli [14]): 62%
CCCCCCC(=O)N(Cc1ccccc1)c1ccc(C(=O)N[C@@H](CCCCN)C(=O)OC)c(OCCc2c[nH]c3ccccc23)c1	> 125	28 (≈ 43.7 µM)	4 (≈ 6.24 µM)	–	> 256	> 256	8 (≈ 12.5 µM)	> 256	> 256	> 256	inhibition (Escherichia coli [6]): 22%
CCCCCCC(=O)Nc1ccc(C(=O)N[C@@H](CCCCN)C(=O)OC)c(OCc2ccccc2)c1	125 (≈ 251 µM)	44 (≈ 88.4 µM)	8 (≈ 16.1 µM)	–	> 256	> 256	16 (≈ 32.2 µM)	> 256	> 256	> 256	inhibition (Escherichia coli [14]): 36%
CCCCCCCCNC(=O)CNC(=O)[C@@H](N)CCCCN	18 (≈ 57.2 µM)	2 (≈ 6.36 µM)	10 (≈ 31.8 µM)	inactive	–	–	–	–	–	–	–
CCCCCCCCOC(=O)[C@H](Cc1c[nH]c2ccccc12)NC(=O)[C@@H](N)Cc1cnc[nH]1	21 (≈ 46.3 µM)	12 (≈ 26.5 µM)	8 (≈ 17.6 µM)	inactive	64 (≈ 141 µM)	64 (≈ 141 µM)	8 (≈ 17.6 µM)	16 (≈ 35.3 µM)	8 (≈ 17.6 µM)	32 (≈ 70.5 µM)	–
